# Test results from patent US20060122105A1, “Method of improing the growth performance of an animal” (priority 2001, published 2006).
# Columns and labels:
# [1] = test system: Actinobacillus pleuropneumoniae (App); experiment: App challenge of pigs, prophylactic recombinant IL-1ra, plasmid IL-1ra or flunix (Example 5); assay type: in vivo; design: improvements in weight gain over saline controls / reduction in weight gain compared to saline controls / reduction in clinical symptoms compared to saline / reduction of pleurisy compared to saline treated controls / reduction in affected lung mass compared to saline treated controls: concentration or dose not given beside the values
# Procedure: Male pigs, with a mean starting weight of 52 kg, were allocated to 5 treatment groups as outlined in Table 6. Pigs were housed in group pens, with each pen containing a replicate from each of the treatment groups. The starting weights of each treatment group and each pen were equal prior to the start of the trial. Pigs were provided with pelleted feed and water ad libitum.
# Recombinant IL-1ra and saline-were administered as 1 ml doses, given subcutaneously behind the ear. Plasmids were administered in 1 ml doses, given intramuscularly in the hind-leg. Flunix was administered as a 2 ml dose according to the manufacturer's instructions, and delivered intramuscularly in the neck. The timetable of administration is outlined in Table 6 below.
# Prior to challenge, pigs were treated with recombinant cytokines, flunix or plasmids as described Table 7. Pigs were anaesthetised and infected intratracheally with 7.5×10^5 pfu App on day 0.
# Blood was sampled from pigs by venipuncture at 0, 24 h and 14 days post-challenge. Blood was assayed for immunological parameters as previously described. Pigs were weighed weekly from delivery of plasmids and for 2 weeks after challenge.
# At the conclusion of the trial, pigs were euthanased and the lungs removed for post-mortem examination. Lungs were scored for pleurisy from 0-5 (FIGS. 39 and 40) and the degree of pleuropneumonia was determined by weighing affected lung and expressed as a percentage of total lung weight (FIGS. 41 and 42). Pigs treated with flunix and IL-1ra had less pleurisy than the saline controls (FIG. 39).
# [2] = test system: Actinobacillus pleuropneumoniae (App); experiment: as above; assay type: in vivo; conditions: day 13 after challenge compared with pre-challenge levels; FIG. 35
smiles,measurement,setting,value
"Cc1c(Nc2ncccc2C(=O)O)cccc1C(F)(F)F [flunix, reference compound]",reduction in weight gain compared to saline controls,"[1]; 14d App challenge, FIG. 33",84.6%
same,production of IL-6 (mRNA in peripheral blood),"[1]; after App challenge, compared with saline treated controls, FIG. 36",reduce the production of IL-6 only
same,growth during the week of challenge,"[1]; first week after App challenge, FIG. 30",weight loss
same,reduction in affected lung mass compared to saline treated controls,"[1]; percentage of lung affected by App lesions, FIG. 42",64.1%
same,reduction of pleurisy compared to saline treated controls,"[1]; pleurisy score 0-5 at necropsy, FIG. 40",55.6%
same,levels of TNFα protein in the serum,[2],failed to inhibit the production of TNFα
